5 compounds from US12528800B2, “Pesticidal compounds” (BASF SE, priority 2018, dated 2026) can be followed below.

SMILES strings stand for the structures.

What all share (type): in vivo
For experiment [1], the system named is boll weevil (Anthonomus grandis). Nature of the experiment: Action on boll weevil (Anthonomus grandis), microtiter plate diet test. The note with it: 120 h, egg and larval mortality after 5 days, read-out: mortality in comparison with untreated controls. The procedure: For evaluating control of boll weevil (Anthonomus grandis) the test unit consisted of 96-well-microtiter plates containing an insect diet and 5-10 A. grandis eggs.
The compounds were formulated using a solution containing 75% (v/v) water and 25% (v/v) DMSO. Different concentrations of formulated compounds were sprayed onto the insect diet at 5 μl, using a custom built micro atomizer, at two replications.
After application, microtiter plates were incubated at about 25+1° C. and about 75+5% relative humidity for 5 days. Egg and larval mortality was then visually assessed.

Experiment [2] concerns Silverleaf whitefly (Bemisia argentifolii) (adults). The experiment is described as follows: Action on silverleaf whitefly (Bemisia argentifolii) adults, sprayed cotton plants. As to conditions: 72 h, 3 days after treatment, read-out: mortality in comparison with untreated controls. The procedure: The active compounds were formulated by a Tecan liquid handler in 100% cyclohexanone as a 10,000 ppm solution supplied in tubes. The 10,000 ppm solution was serially diluted in 100% cyclohexanone to make interim solutions. These served as stock solutions for which final dilutions were made by the Tecan in 50% acetone:50% water (v/v) into 5 or 10 ml glass vials. A nonionic surfactant (Kinetic®) was included in the solution at a volume of 0.01% (v/v). The vials were then inserted into an automated electrostatic sprayer equipped with an atomizing nozzle for application to plants/insects.
Cotton plants at the cotyledon stage (one plant per pot) were sprayed by an automated electrostatic plant sprayer equipped with an atomizing spray nozzle. The plants were dried in the sprayer fume hood and then removed from the sprayer. Each pot was placed into a plastic cup and about 10 to 12 whitefly adults (approximately 3-5 days old) were introduced. The insects were collected using an aspirator and a nontoxic Tygon® tubing connected to a barrier pipette tip. The tip, containing the collected insects, was then gently inserted into the soil containing the treated plant, allowing insects to crawl out of the tip to reach the foliage for feeding. Cups were covered with a reusable screened lid. Test plants were maintained in a growth room at about 25° C. and about 20-40% relative humidity for 3 days, avoiding direct exposure to fluorescent light (24 hour photoperiod) to prevent trapping of heat inside the cup. Mortality was assessed 3 days after treatment, compared to untreated control plants.

Experiment [3] deals with yellow fever mosquito (Aedes aegypti). The experiment is described as follows: whole plant or invertebrate. As to conditions: 48 h, larval mortality visually assessed after 2 days, read-out: mortality in comparison with untreated controls. The procedure:
For evaluating control of yellow fever mosquito (Aedes aegypti) the test unit consisted of 96-well-microtiter plates containing 200 μl of tap water per well and 5-15 freshly hatched A. aegypti larvae.
The active compounds or mixtures were formulated using a solution containing 75% (v/v) water and 25% (v/v) DMSO. Different concentrations of formulated compounds or mixtures were sprayed onto the insect diet at 2.5 μl using a custom built micro atomizer, at two replications.
For experimental mixtures in these tests identical volumes of both mixing partners at the desired concentrations respectively, were mixed together.
After application, microtiter plates were incubated at 28+1° C., 80+5% RH for 2 days. Larval mortality was then visually assessed.

Experiment [4] concerns Diamond back moth (Plutella xylostella). Nature of the experiment: Action on diamond back moth (Plutella xylostella), cabbage leaf dip. The note with it: foliar, 3rd instar larvae on dipped cabbage leaves, 72 hours after treatment, read-out: mortality in comparison with untreated controls. On the procedure:
The active compound is dissolved at the desired concentration in a mixture of 1:1 (v/v) distilled water: acetone. Surfactant (Kinetic® HV) is added at a rate of 0.01% (v/v). The test solution is prepared at the day of use.
Leaves of cabbage were dipped in test solution and air-dried. Treated leaves were placed in petri dishes lined with moist filter paper and inoculated with ten 3rd instar larvae. Mortality was recorded 72 hours after treatment. Feeding damages were also recorded using a scale of 0-100%.

The test system of experiment [5] is Orchid thrips (Dichromothrips corbetti). The experiment is described as follows: Action on orchid thrips (Dichromothrips corbetti), floral-immersion technique. As to conditions: adult thrips, 72 hours after treatment, read-out: mortality in comparison with untreated controls. The procedure: Dichromothrips corbetti adults used for bioassay were obtained from a colony maintained continuously under laboratory conditions. For testing purposes, the test compound is diluted in a 1:1 mixture of acetone:water (vol:vol), plus Kinetic® HV at a rate of 0.01% v/v.
Thrips potency of each compound was evaluated by using a floral-immersion technique. All petals of individual, intact orchid flowers were dipped into treatment solution and allowed to dry in Petri dishes. Treated petals were placed into individual re-sealable plastic along with about 20 adult thrips. All test arenas were held under continuous light and a temperature of about 28° C. for duration of the assay. After 3 days, the numbers of live thrips were counted on each petal. The percent mortality was recorded 72 hours after treatment.

The test system of experiment [6] is Southern armyworm (Spodoptera eridania), 2nd instar larvae. The experiment is described as follows: Action on southern armyworm (Spodoptera eridania), 2nd instar larvae, sprayed lima bean plants. The note with it: 96 h, 2nd instar larvae on lima bean plants, 4 days after treatment, read-out: mortality in comparison with untreated controls. On the procedure: The active compounds were formulated by a Tecan liquid handler in 100% cyclohexanone as a 10,000 ppm solution supplied in tubes. The 10,000 ppm solution was serially diluted in 100% cyclohexanone to make interim solutions. These served as stock solutions for which final dilutions were made by the Tecan in 50% acetone:50% water (v/v) into 10 or 20 ml glass vials. A nonionic surfactant (Kinetic®) was included in the solution at a volume of 0.01% (v/v). The vials were then inserted into an automated electrostatic sprayer equipped with an atomizing nozzle for application to plants/insects.
Lima bean plants (variety Sieve) were grown 2 plants to a pot and selected for treatment at the 1st true leaf stage. Test solutions were sprayed onto the foliage by an automated electrostatic plant sprayer equipped with an atomizing spray nozzle. The plants were dried in the sprayer fume hood and then removed from the sprayer. Each pot was placed into perforated plastic bags with a zip closure. About 10 to 11 armyworm larvae were placed into the bag and the bags zipped closed. Test plants were maintained in a growth room at about 25° C. and about 20-40% relative humidity for 4 days, avoiding direct exposure to fluorescent light (24 hour photoperiod) to prevent trapping of heat inside the bags. Mortality and reduced feeding were assessed 4 days after treatment, compared to untreated control plants.

Experiment [7] has as its system tobacco budworm (Heliothis virescens). The experiment is described as follows: Action on tobacco budworm (Heliothis virescens), microtiter plate diet test. As to conditions: 120 h, egg and larval mortality after 5 days, read-out: mortality in comparison with untreated controls. The procedure:
For evaluating control of tobacco budworm (Heliothis virescens) the test unit consisted of 96-well-microtiter plates containing an insect diet and 15-25 H. virescens eggs.
The compounds were formulated using a solution containing 75% v/v water and 25% v/v DMSO. Different concentrations of formulated compounds were sprayed onto the insect diet at 10 μl, using a custom-built micro atomizer, at two replications.
After application, microtiter plates were incubated at about 28+1° C. and about 80+5% relative humidity for 5 days. Egg and larval mortality were then visually assessed.

The term mortality denotes the percentage killed. Consider `CC(C)c1ccccc1NC(=S)N/N=C/c1ccc(-c2cc(NC(=O)c3ccc(OC(F)(F)F)cc3)n(C)n2)cc1` [Compound C-1, N-[5-[4-[(E)-[(2-isopropylphenyl)carbamothioylhydrazono]methyl]phenyl]-2-methyl-pyrazol-3-yl]-4-(trifluoromethoxy)benzamide], for which the mortality at 800 ppm is no less than 75% in experiment [1], no less than 50% in experiment [3] and no less than 75% in experiment [7]. Further, the mortality at 300 ppm in experiment [2] and in experiment [6] was no less than 75% each time. Moreover, the mortality at 500 ppm in experiment [4] and in experiment [5] was no less than 75% each time.

For `CC(C)c1ccccc1NC(=S)N/N=C/c1ccc(-c2cc(OCc3ccc(OC(F)(F)F)cc3)n(C)n2)cc1` [Compound C-10, 1-(2-isopropylphenyl)-3-[(E)-[4-[1-methyl-5-[[4-(trifluoromethoxy)phenyl]methoxy]pyrazol-3-yl]phenyl]methyleneamino]thiourea], the mortality at 800 ppm in experiment [1] and in experiment [7] was no less than 75% throughout. Besides, the mortality at 300 ppm in experiment [2] and in experiment [6] was no less than 75% in each case. The mortality at 500 ppm in experiment [4] and in experiment [5] was no less than 75% each time.

For `CCn1nc(-c2ccc(/C=N/NC(=S)Nc3ccccc3C(C)C)cc2)cc1NC(=O)c1ccc(OC(F)(F)F)cc1` [Compound C-29, N-[2-ethyl-5-[4-[(E)-[(2-isopropylphenyl)carbamothioylhydrazono]methyl]phenyl]pyrazol-3-yl]-4-(trifluoromethoxy)benzamide], the mortality at 800 ppm in experiment [1] was no less than 75%; in experiment [3], no less than 50%; in experiment [7], no less than 75%. In addition, the mortality at 500 ppm in experiment [4] and in experiment [5] was no less than 75% in each case. The mortality at 300 ppm in experiment [6] is no less than 75%.

Consider `CC(C)c1ccccc1NC(=S)N/N=C/c1ccc(-c2cc(COc3ccc(OC(F)(F)F)cc3)n(C)n2)cc1` [Compound C-52, 1-(2-isopropylphenyl)-3-[(E)-[4-[1-methyl-5-[[4-(trifluoromethoxy)phenoxy]methyl]pyrazol-3-yl]phenyl]methyleneamino]thiourea], for which the mortality at 800 ppm was no less than 75% in experiment [1], no less than 50% in experiment [3] and no less than 75% in experiment [7]. For the same compound, the mortality at 300 ppm in experiment [2] and in experiment [6] was no less than 75% each time. Also, the mortality at 500 ppm in experiment [4] and in experiment [5] was no less than 75% throughout.

Regarding `CC(C)c1ccccc1N1C(=O)CS/C1=N\N=C\c1ccc(-c2nc(NC(=O)c3ccc(OC(F)(F)F)cc3)n(C)n2)cc1` [Compound C-64, N-[5-[4-[(E)-[(Z)-[3-(2-isopropylphenyl)-4-oxo-thiazolidin-2-ylidene]hydrazono]methyl]phenyl]-2-methyl-1,2,4-triazol-3-yl]-4-(trifluoromethoxy)benzamide], the mortality at 800 ppm in experiment [1] is no less than 75%; in experiment [3] it was no less than 50%; in experiment [7], no less than 75%. Also, the mortality at 500 ppm in experiment [4] and in experiment [5] was no less than 75% each time. The mortality at 300 ppm in experiment [6] was no less than 75%.
